Measurements: patent publication US9045781B2, “Process for the production of optically-active esters of lactic acid and lactyllactic acid” (Plaxica Limited, priority 2011, dated 2015)

Description: The solubility of lactide in different solvents was investigated.

Solubility of lactide in a n-BuOH/acetone system: 1.44 g | Solubility of lactide in different solvents, rank order: Acetone>>n-BuOH>t-BuOH
Compound: CC1OC(=O)C(C)OC1=O (racemic) [lactide, 3,6-dimethyl-1,4-dioxan-2,5-dione]
